From ChEMBL document CHEMBL5230122, “Natural products and other inhibitors of F1FO ATP synthase” (Eur J Med Chem, 2020)
In brackets after ≈: the same amount, converted by molar mass. Blank lines part the entries; values can stand above or below the molecule they belong to. Square brackets hold non-standard residues; d marks the D form. Peptide text beside a SMILES is read from it. * marks the point of attachment. Leu(3R-OH) = CC(C)[C@@H](O)[C@H](N)C(=O)O; NH((S)CH(Me)CH2NMe2) = C[C@@H](CN(C)C)N*; Pro(4S-Me) = C[C@@H]1CN[C@H](C(=O)O)C1; X1 = CC[C@@H](C)/C=C/C(=O)*; Aib = CC(C)(N)C(=O)O; βAla = NCCC(=O)O

Key:
[1] = system: P388; assay: Anticancer activity against mouse P388 cells assessed as reduction in cell viability incubated for 96 hrs by MTT assay; format: functional, cell-based; conditions: P388, 96 h
[2] = system: NCI-H292; assay: Antiproliferative activity against human NCI-H292 cells assessed as reduction in cell viability by MTT assay; format: functional, cell-based
[3] = system: HeLa; assay: Antiproliferative activity against human HeLa cells assessed as reduction in cell viability by MTT assay; format: functional, cell-based
[4] = system: HCT-116; assay: Antiproliferative activity against human HCT-116 cells assessed as reduction in cell viability incubated for 72 hrs by MTT assay; format: functional, cell-based; conditions: HCT-116, 72 h
[5] = system: N2a; assay: Antiproliferative activity against mouse Neuro2a cells assessed as reduction in cell viability incubated for 48 hrs by MTT assay; format: functional, cell-based
[6] = Antiproliferative activity against human U87G cells assessed as reduction in cell viability incubated for 72 hrs by MTT assay; format: functional, cell-based
[7] = Inhibition of bovine heart mitochondrial F0F1-ATPase assessed as reduction in ATP synthesis by fluorescence assay; format: mitochondria, Bos taurus, Mitochondria
[8] = Inhibition of bovine heart mitochondrial F0F1-ATPase assessed as decrease in rate of ATP hydrolysis by fluorescence assay; format: mitochondria, Bos taurus, Mitochondria
[9] = system: T47D; assay: Antiproliferative activity against human T47D cells assessed as reduction in cell viability incubated for 48 hrs by MTT assay; format: functional, cell-based
[10] = system: MDA-MB-231; assay: Antiproliferative activity against human MDA-MB-231 cells assessed as reduction in cell viability incubated for 48 hrs by MTT assay; format: functional, cell-based; conditions: MDA-MB-231, 48 h
[11] = system: MCF7; assay: Antiproliferative activity against human MCF7 cells assessed as reduction in cell viability incubated for 48 hrs by MTT assay; format: functional, cell-based; conditions: MCF7, 48 h
[12] = system: HL-60; assay: Antiproliferative activity against human HL-60 cells assessed as reduction in cell viability incubated for 48 hrs by MTT assay; format: functional, cell-based; conditions: HL-60, 48 h
[13] = system: SMMC-7721; assay: Antiproliferative activity against human SMMC-7721 cells assessed as reduction in cell viability incubated for 48 hrs by MTT assay; format: functional, cell-based; conditions: SMMC-7721, 48 h
[14] = system: A549; assay: Antiproliferative activity against human A549 cells assessed as reduction in cell viability incubated for 48 hrs by MTT assay; format: functional, cell-based; conditions: A549, 48 h
[15] = system: SW480; assay: Antiproliferative activity against human SW480 cells assessed as reduction in cell viability incubated for 48 hrs by MTT assay; format: functional, cell-based; conditions: SW480, 48 h
[16] = system: HL-60; assay: Anticancer activity against human HL-60 cells assessed as reduction in cell viability incubated for 72 hrs by CCK-8 assay; format: functional, cell-based; conditions: HL-60, 72 h
[17] = system: MCF7; assay: Anticancer activity against human MCF7 cells assessed as reduction in cell viability incubated for 72 hrs by CCK-8 assay; format: functional, cell-based; conditions: MCF7, 72 h
[18] = system: NCI-H1299; assay: Anticancer activity against human NCI-H1299 cells assessed as reduction in cell viability incubated for 72 hrs by CCK-8 assay; format: functional, cell-based; conditions: NCI-H1299, 72 h
[19] = system: LoVo; assay: Anticancer activity against human LoVo cells assessed as reduction in cell viability incubated for 72 hrs by CCK-8 assay; format: functional, cell-based
[20] = Inhibition of bovine heart mitochondrial F0F1-ATP synthase assessed as rate of NADH oxidation in presence of NADH for 30 mins by colorimetric assay; format: mitochondria, Bos taurus, Mitochondria
[21] = system: HeLa; assay: Cytotoxicity against human HeLa cells assessed as reduction in cell viability; format: functional, cell-based
[22] = system: HL-60; assay: Cytotoxicity against human HL-60 cells assessed as reduction in cell viability; format: functional, cell-based
[23] = Inhibition of bovine heart mitochondrial F0F1-ATP synthase F0 domain assessed as reduction in rate of NADH oxidation for 30 mins by colorimetric assay; format: mitochondria, Bos taurus, Mitochondria
[24] = system: DU-145; assay: Antiproliferative activity against human DU-145 cells assessed as reduction in cell viability incubated for 3 days by rhodanile-blue dye based microplate reader analysis; format: functional; conditions: DU-145, 72 h
[25] = system: DU-145; assay: Antiproliferative activity against human DU-145 cells assessed as reduction in cell viability preincubated with PrSCs cells for 2 days followed by co-culture with DU-145 for 3 days by rhodanile-blue dye based microplate reader analysis; format: functional
[26] = Acute toxicity in mouse assessed as maximum tolerated dose; conditions: in vivo
[27] = Inhibition of yeast mitochondrial F0F1-ATPase assessed as inhibition constant measured after 20 mins in presence of NADH and ATP by microplate reader analysis; format: mitochondria, Saccharomyces cerevisiae, Mitochondria
[28] = system: GBM; assay: Anticancer activity against human GBM cells carrying high-throughput GBM sphere assessed as reduction in cell viability incubated for 96 hrs by Cell-Titer-Glo assay; format: functional, cell-based

IC50 [2]: 82 nM
IC50 [3]: 260 nM
Compound: COC[C@@H](C[C@H]1O[C@@](O)([C@H](O)[C@@H]2C[C@H](OC)[C@@H](O)CC/C=C(C)/C=C/[C@@H](O[C@@H]3O[C@@H](C)[C@H](OC)[C@@H](OC(=O)CCC(=O)O)[C@@H]3O)[C@H](C)/C=C(C)/C=C(C)/C=C(\C)C(=O)O2)[C@H](C)[C@@H](O)[C@H]1C)O[C@H]1C[C@](C)(O)[C@@H](O[C@H]2C[C@@H](OC)[C@H](O)[C@@H](C)O2)[C@H](C)O1

IC50 [4]: 54 nM
Compound: CO[C@H]1[C@H](O[C@@H]2C[C@@H]3C[C@H](OCCCC=O)[C@@]4(O)C[C@H](C[C@H](O)[C@@H]5C[C@H](C)[C@H](/C=C\C=C\[C@H](C)C[C@H](C2)O3)O5)OC4=O)O[C@@H](C)[C@H](O)[C@H]1O
IC50 [5]: 84 nM
IC50 [6]: 61 nM

IC50 [16]: 610 nM
IC50 [17]: 4.98 µM
IC50 [18]: 5.08 µM
IC50 [19]: 1830 nM
Compound: CC[C@H](C)[C@H](NC(=S)[C@H](C)NC(=O)[C@H](C)NC(=S)[C@H](CCSC)NC(=S)[C@@H](NC(=O)C(C)=O)C(C)C)C(=S)N[C@@H](C)C(=O)N[C@H]1C(=O)N[C@@H](C(C)C)C(=O)N[C@@H](C)C(=O)N[C@@H](Cc2ccc(OC)cc2)C(=O)N[C@@H](C(O)c2cn(C)c[n+]2C)C(=O)N/C=C\SC1C (some centres undefined)

IC50 [20]: 1000 nM
Compound: CC[C@@H](O)C[C@@H]1O[C@@]2(CC[C@@H]1C)C[C@H]1C[C@H](CC[C@@H](CC)/C=C/C=C/CCC[C@@](C)(O)[C@H](O)C[C@H](O)C[C@@H](O)[C@@H](C)[C@H](O)[C@@H](CC)/C=C/C(=O)O1)O2
IC50 [21]: 8.2 µM
IC50 [22]: 5.8 µM

Further lines, the molecule ahead of its results:

Compound: CC/C(C)=C(\NC(=O)[C@@H](NC(=O)CC(=O)[C@@H](C)CC(C)C)[C@](C)(O)CC)C(=O)NCC(=O)N/C(C(=O)N[C@@H](C(=O)N[C@@H](C(=O)N[C@@H](C(=O)N[C@H](C(=O)N/C(C(=O)N[C@H](C)C(=O)N[C@@H](C(=O)N[C@H](C(=O)NC(C(=O)N[C@H](CN(C)C)C(C)C)=C(C)C)C(C)C)C(C)C)=C(\C)CC)C(C)(C)O)C(C)(C)O)[C@@H](C)CC)C(C)C)=C(\C)CC
IC50 [1]: 0.88 nM

Compound: CC[C@H]1O[C@@]2(C)[C@H](OC(C)=O)[C@@]1(C)O[C@@H](/C=C/C=C/C=C/c1oc(=O)cc(OC)c1C)[C@@H]2O
Ki [7]: 25 nM
Ki [8]: 120 nM
IC50 [9]: 890 nM
IC50 [10]: 5.52 µM
IC50 [11]: 90 nM
IC50 [12]: 14.7 µM
IC50 [13]: 10.8 µM
IC50 [14]: 14.7 µM
IC50 [15]: 22.4 µM

Compound: CC[C@@H](C)/C=C/C(=O)N1C[C@@H](C)C[C@H]1C(=O)N[C@@H](C)C(=O)N[C@H](C(=O)NC(C)(C)C(=O)N[C@@H](CC(C)C)C(=O)N[C@@H](CC(C)C)C(=O)NC(C)(C)C(=O)NC(C)(C)C(=O)NCCC(=O)N[C@@H](C)CN(C)C)[C@H](O)C(C)C (X1-[Pro(4S-Me)]A[Leu(3R-OH)][Aib]LL[Aib][Aib][βAla]-{NH((S)CH(Me)CH2NMe2)})
IC50 [23]: 2.8 µg/mL (≈ 2.6 µM)
IC50 [24]: > 1 µg/mL
IC50 [25]: 0.21 µg/mL (≈ 0.195 µM)
MTD [26]: 12.5 mg/kg

Compound: COC[C@@H](C[C@H]1O[C@@](O)([C@@H]2OC(=O)/C(C)=C/C(C)=C/C(C)=C/[C@@H](C)[C@H](O[C@@H]3O[C@@H](C)[C@H](OC)[C@@H](O)[C@@H]3O)/C=C/C(C)=C/CC[C@H](O)[C@@H](OC)C[C@@H]2O)[C@H](C)[C@@H](O)[C@H]1C)O[C@H]1C[C@](C)(O)[C@@H](O[C@H]2C[C@@H](OC)[C@H](O)[C@@H](C)O2)[C@H](C)O1
Ki [27]: 17 µM

Compound: CCc1n(CC(=O)O[C@@H]2C[C@H](C)CC[C@H]2C(C)C)c2ccccc2[n+]1C
IC50 [28]: 150 nM

Compound: CC(C)[C@@H]1CC[C@@H](C)C[C@H]1OC(=O)Cn1c(-c2cccc(C(F)(F)F)c2)[n+](C)c2ccccc21
IC50 [28]: 470 nM
